How the values were obtained:
[1] = biological target: T1, gastrin receptors (Rattus norvegicus, UniProt P30553); experiment: gastrin antagonist activity in an immature rat stomach assay (pentagastrin-stimulated acid secretion); conditions: isolated immature rat stomach, cumulative pentagastrin dose-response curves; for Gastrin pKB: 60 min; for Kb: read-out: Gastrin pKB (converted)
T1 construct: from tissue; host or cells: isolated perfused whole stomach of immature rats (33-50 g, ca. 21 days old)
T1 sequence (P30553 1-452): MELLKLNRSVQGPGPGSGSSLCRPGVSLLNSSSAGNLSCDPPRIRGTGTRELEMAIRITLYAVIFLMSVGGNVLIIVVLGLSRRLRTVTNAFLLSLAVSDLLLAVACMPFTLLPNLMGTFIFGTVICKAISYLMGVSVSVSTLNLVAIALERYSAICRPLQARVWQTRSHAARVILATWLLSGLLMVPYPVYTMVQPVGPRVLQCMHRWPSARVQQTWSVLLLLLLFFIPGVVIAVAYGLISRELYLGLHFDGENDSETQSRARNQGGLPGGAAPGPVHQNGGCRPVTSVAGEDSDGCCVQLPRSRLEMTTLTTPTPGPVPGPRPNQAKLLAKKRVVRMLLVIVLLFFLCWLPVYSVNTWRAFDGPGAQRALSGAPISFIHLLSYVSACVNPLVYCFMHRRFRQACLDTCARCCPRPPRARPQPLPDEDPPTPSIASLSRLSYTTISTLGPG
Procedure: The compounds of the examples were also tested for gastrin antagonist activity in an immature rat stomach assay. The procedure was as follows:
The oesophagus of immature rats (33-50 g, ca. 21 days old) was ligated at the level of the cardiac sphincter and the duodenal sphincter was cannulated. The stomach was excised and flushed with ca. 1 ml of unbuffered physiological saline solution. The fundus was punctured and cannulated. A further 4-5 ml of unbuffered solution was flushed through the stomach to ensure the preparation was not leaking. The stomach was lowered into a jacketed organ bath containing 40 ml of buffered solution containing 3×10^-8 M 5-methyl-furmethide, maintained at 37° and gassed vigorously with 95% O2 /5% CO2. The stomach was continuously perfused at a rate of 1 ml min^-1 with unbuffered solution gassed with 100% O2 with the perfusate passing over an internally referenced pH-electrode fixed 12 cm above the stomach.
After 120 min of stabilisation the drugs were added directly to the serosal solution in the organ bath and after a further 60 min cumulative pentagastrin dose-response curves were started. Changes in acid secretion were monitored and the curves analysed according to Black et. al., Br. J. Pharmacol., 1985, 86, 581.

[2] = biological target: T2, CCKB receptor (Mus musculus, UniProt P56481); experiment: radioligand binding assay at the CCKB receptor in mouse cortical membranes ([125I]-CCK8S); conditions: 150 min at 21±3°; for Ki: read-out: CCKB pKi (converted)
T2 construct: The cortex was dissected, weighed and homogenised in 40 ml ice-cold buffer; from tissue; host or cells: cerebral cortex membranes of male CD1 mice (Charles River)
T2 sequence (P56481 1-453): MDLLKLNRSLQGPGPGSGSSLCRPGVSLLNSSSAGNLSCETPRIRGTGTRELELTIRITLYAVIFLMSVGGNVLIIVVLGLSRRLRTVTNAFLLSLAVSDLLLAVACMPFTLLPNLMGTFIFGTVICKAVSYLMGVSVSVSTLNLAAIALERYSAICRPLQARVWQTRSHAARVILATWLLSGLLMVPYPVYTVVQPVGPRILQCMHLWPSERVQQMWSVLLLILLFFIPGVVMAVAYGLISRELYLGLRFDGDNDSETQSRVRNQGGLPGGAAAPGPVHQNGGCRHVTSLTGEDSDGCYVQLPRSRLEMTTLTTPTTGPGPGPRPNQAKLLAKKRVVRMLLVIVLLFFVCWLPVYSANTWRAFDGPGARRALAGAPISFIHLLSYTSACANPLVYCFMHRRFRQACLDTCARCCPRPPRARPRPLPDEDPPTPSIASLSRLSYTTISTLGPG
Procedure: The compounds of the examples were tested for binding at the CCKB receptor in mouse cortical membranes by means of a radioligand binding assay. The procedure was as follows:
The whole brains from male mice (CD1 22-25 g; Charles River) were removed and placed in ice-cold buffer (pH7.2 @ 21±3 °) of the following composition (mM); 10 HEPES, 130 NaCl, 4.7 KCl, 5 MgCl2, 1 EDTA and containing 0.25 g.1^-1 bacitracin. The cortex was dissected, weighed and homogenised in 40 ml ice-cold buffer using a Teflon-in-glass homogeniser. The homogenate was centrifuged at 39,800 g for 20 min at @ 4°, the supernatant discarded and the pellet resuspended by homogenisation in fresh buffer. The homogenate was recentrifuged (39,800 g; 20 min @4°) and the final pellet was resuspended in HEPES buffer to give a tissue concentration of 2 mg.ml^-1 (original wet weight).
The membranes ([…]) were incubated for 150 min at 21±3° in a final volume of 0.5 ml with HEPES buffer containing [^125 I]-CCK8S (0.05 ml; 200 pM NEN 2200 Ci.mmol^-1) and competing compound. Total and non-specific binding of [^125 I]-CCK8S were defined using 0.05 ml of buffer and 0.05 ml of […] L-365,260, respectively. The assay was terminated by rapid filtration through pre-soaked Whatman GF/B filters using a Brandell Cell harvester. The filters were washed (3×3 ml) with ice-cold 50 mM Tris-HC1 (pH7.4 @ 4° C.) and bound radioactivity determined by counting (1 min.) in a gamma-counter.

| Structure (SMILES) | Gastrin pKB [1] | CCKB pKi [2] | Kb [1] | Ki [2] |
| --- | --- | --- | --- | --- |
| COC(=O)C12CC(c3ccccc31)C(C(=O)NCC13CC4CC(CC(C4)C1)C3)C2C(=O)O (mixture of isomers) [Example 54, 1-methoxycarbonyl-endo-cis-(±)-7-(1-adamantylmethylaminocarbonyl)-2,3-benzobicyclo-[2.2.1] hept-6-carboxylic acid] | 6.1 | 5.3 | – | – |
| CC1=C(C)[C@H]2c3ccccc3[C@@H]1[C@H](C(=O)O)[C@@H]2C(=O)NCC12CC3CC(CC(C3)C1)C2 (relative stereo) [Example 12, endo-(±)-cis-8-(1-adamantylmethylaminocarbonyl)-2,3-dimethyl-5,6-benzobicyclo[2.2.2]oct-2-ene-7-carboxylic acid] | – | – | 5010 nM | 794 nM |
| COC(=O)[C@H](C)NC(=O)C1C2CCC(c3ccccc32)C1C(=O)NCC12CC3CC(CC(C3)C1)C2 (stereo partly drawn) [Example 22, endo-cis-7-(1-S-Methoxycarbonyl-ethylaminocarbonyl)-8-(1-adamantylmethylaminocarbonyl)-2,3-benzobicyclo[2.2.2]octane] | – | – | 200 nM | 631 nM |
| COC(=O)[C@H](C)NC(=O)C1C2C=CC(CC2)C1C(=O)NCC12CC3CC(CC(C3)C1)C2 (stereo partly drawn) [Example 24, endo-cis-2-(1-S-Methoxycarbonyl-ethylaminocarbonyl)-3-(1-adamantylmethylaminocarbonyl)-bicyclo[2.2.2]oct-5-ene] | – | – | 1260 nM | 10000 nM |
| O=C1CC2c3ccccc3C1C(C(=O)O)C2C(=O)NCC12CC3CC(CC(C3)C1)C2 (mixture of isomers) [Example 13, endo-(±)-cis-8-(1-adamantylmethylaminocarbonyl)-2-oxo-5,6-benzobicyclo[2.2.2]octane-7-carboxylic acid] | – | – | 3160 nM | 2510 nM |
| COC(=O)[C@H](C)NC(=O)C1C2CCC(c3ccccc32)C1C(=O)NCC12CC3CC(CC(C3)C1)C2 (stereo partly drawn) [Example 23, exo-cis-7-(1-S-Methoxycarbonyl-ethylaminocarbonyl)-8-(1-adamantylmethylaminocarbonyl)-2,3-benzobicyclo[2.2.2]octane] | – | – | 316 nM | 398 nM |
| COC(=O)[C@H](C)NC(=O)C1C2C=CC(c3ccccc32)C1C(=O)NCC12CC3CC(CC(C3)C1)C2 (stereo partly drawn) [Example 8, endo-cis-7-(1--S--methoxycarbonylethylaminocarbonyl)-8-(1-adamantylmethylaminocarbonyl)-5,6-benzobicyclo[2.2.2]oct-2-ene] | – | – | 501 nM | 631 nM |
| O=C(NCC12CC3CC(CC(C3)C1)C2)C1C2C=CC(c3ccccc32)C1C(=O)N1CCC[C@H]1C(=O)O (stereo partly drawn) [Example 27, exo-cis-7-(2-S-carboxy-pyrrolidinocarbonyl)-8-(1-adamantylmethylaminocarbonyl)-5,6-benzo-bicyclo[2.2.2]oct-2-ene] | 6.5 | 6.2 | – | – |
| O=C(NCC12CC3CC(CC(C3)C1)C2)C1C2C=CC(c3ccccc32)C1C(=O)N1CCC[C@H]1C(=O)O (stereo partly drawn) [Example 26, endo-cis-7-(2-S-carboxy-pyrrolidinocarbonyl)-8-(1-adamantylmethylaminocarbonyl)-5,6-benzo-bicyclo[2.2.2]oct-2-ene] | – | – | 1260 nM | 3160 nM |
| COC(=O)[C@@H]1CCCN1C(=O)C1C2C=CC(c3ccccc32)C1C(=O)NCC12CC3CC(CC(C3)C1)C2 (stereo partly drawn) [Example 30, endo-cis-7-(2-S-methoxycarbonyl-pyrrolidinocarbonyl)-8-(1-adamantylmethylaminocarbonyl)-5,6-benzo-bicyclo[2.2.2]oct-2-ene] | – | – | 398 nM | 501 nM |
| O=C(O)[C@@H]1[C@H](C(=O)NCC23CC4CC(CC(C4)C2)C3)[C@H]2C=C[C@@H]1c1ccccc12 (relative stereo) [Example 2, endo-(±)-cis-8-(1-adamantylmethylaminocarbonyl)-5,6-benzobicyclo[2.2.2]oct-2-ene-7-carboxylic acid] | – | – | 1260 nM | 2510 nM |
| CC1=C(C)[C@H]2c3ccccc3[C@@H]1[C@@H](C(=O)O)[C@H]2C(=O)NCC12CC3CC(CC(C3)C1)C2 (relative stereo) [Example 11, exo-(±)-cis-8-(1-adamantylmethylaminocarbonyl)-2,3-dimethyl-5,6-benzobicyclo[2.2.2]oct-2-ene-7-carboxylic acid] | – | – | 6310 nM | 1580 nM |
| COC(=O)[C@@H]1CCCN1C(=O)C1C2C=CC(c3ccccc32)C1C(=O)NCC12CC3CC(CC(C3)C1)C2 (stereo partly drawn) [Example 31, exo-cis-7-(2-S-methoxycarbonyl-pyrrolidinocarbonyl)-8-(1-adamantylmethylaminocarbonyl)-5,6-benzo-bicyclo[2.2.2]oct-2-ene] | – | – | 501 nM | – |
| O=C(NCC12CC3CC(CC(C3)C1)C2)C1C2C=CC(c3ccccc32)C1C(=O)N[C@H](Cc1c[nH]c2ccccc12)C(=O)O (single isomer, unassigned) [Example 16, endo-cis-7-(2-R-(3-indolyl)-1-carboxy-ethylaminocarbonyl)-8-(1-adamantylmethylaminocarbonyl)-5 , 6-benzobicyclo[2.2.2]oct-2-ene] | – | – | 501 nM | 316 nM |
| O=C(NCC12CC3CC(CC(C3)C1)C2)C1C2C=CC(c3ccccc32)C1C(=O)N1CCC[C@@H]1C(=O)O (stereo partly drawn) [Example 9, exo-cis-7-(2-R-carboxy-pyrrolidinocarbonyl)-8-(1-adamantylmethylaminocarbonyl)-5,6-benzobicyclo-[2.2.2]oct-2-ene] | – | – | 794 nM | 2510 nM |
| O=C(O)C1C2C=CC(C2=C(c2ccccc2)c2ccccc2)C1C(=O)NCC12CC3CC(CC(C3)C1)C2 (racemic) [Example 39, (±)-endo and exo-cis-7-(1-adamantylmethylaminocarbonyl)-2-diphenylmethylene bicyclo-[2.2.1]hept-4-ene-6-carboxylic acid] | – | – | 2510 nM | 2000 nM |
| COC(=O)C12CC(c3ccccc31)C(C(=O)NCC13CC4CC(CC(C4)C1)C3)C2C(=O)N[C@@H](Cc1ccccc1)C(=O)Nc1cc(C(=O)O)cc(C(=O)O)c1 (mixture of isomers) [Example 55, (±)-1-methoxycarbonyl-endo-cis-6-(1S-(3,5-dicarboxyphenylaminocarbonyl)-2-phenylethylamino-carbonyl)-7-(1-adamantylmethylaminocarbonyl)-2,3-benzo-bicyclo[2.2.1]heptane] | 6.9 | 7.6 | – | – |
| O=C(NCC12CC3CC(CC(C3)C1)C2)C1C2C=CC(c3ccccc32)C1C(=O)N1C[C@H](O)C[C@@H]1C(=O)O (stereo partly drawn) [Example 29, exo-cis-7-(2-R-carboxy-4-R-hydroxy-pyrrolidinocarbonyl)-8-(1-adamantylmethylaminocarbonyl)-5,6-benzo-bicyclo[2.2.2]oct-2-ene] | – | – | 2000 nM | 2510 nM |

From patent US5674905A, “Bicyclooctane and bicycloheptane derivatives” (James Black Foundation Limited, priority 1992, dated 1997)
